For assay [1], the system named is phospho-akt (Thr308) in PC-3 cells. Put plainly: Inhibition of phospho-akt (Thr308) in PC-3 cells, MSD phospho-akt 308 ELISA kit. To be noted: Homo sapiens, 2 hours, no serum, read-out: EC50. The class given is cell-based. In outline:
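Serum-free 2 h compound exposure of overnight-seeded PC-3 cells, threefold dilution series; lysates analysed on blocked MSD plates (3% BSA) for Thr308-phosphorylated Akt, normalised between DMSO and 5 μM wortmannin wells.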
For orientation: An ELISA detects its analyte on a solid surface through an enzyme-linked reagent.

The next assay concerns the target PDK1 (Homo sapiens (Human), UniProt O15530). Put plainly: PDK1 kinase assay (coupled PDK1/AKT/FAM-crosstide assay, IMAP fluorescence polarization). In kind it is biochemical. The procedure, abridged:
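Coupled cascade: 0.75 nM PDK1 (51-359) → 10 nM AKT2 (140-467-PIFtide) → 100 nM FAM-crosstide. ATP 40 μM, 25° C, 30 min. IMAP FP (ex 485/em 530), 2 h binding. ΔmP vs conc, 4-param fit.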
(In general: Polarisation of emitted light reports the rotation of a fluorescent probe.)

The mark [2] stands for this setting: inhibition of P308 Akt in PC-3 cells, MSD.
[3] abbreviates: inhibition of phospo-PDK1 in vitro.
Where [4] appears, read: inhibition of P308 Akt in PC-3 cells using MSD.

Structures can show the parent of a compound that is named as a salt. Where two headings read alike, the source gives them in different places. Some results are limits rather than exact numbers.

Sequence of PDK1 (O15530 51-359): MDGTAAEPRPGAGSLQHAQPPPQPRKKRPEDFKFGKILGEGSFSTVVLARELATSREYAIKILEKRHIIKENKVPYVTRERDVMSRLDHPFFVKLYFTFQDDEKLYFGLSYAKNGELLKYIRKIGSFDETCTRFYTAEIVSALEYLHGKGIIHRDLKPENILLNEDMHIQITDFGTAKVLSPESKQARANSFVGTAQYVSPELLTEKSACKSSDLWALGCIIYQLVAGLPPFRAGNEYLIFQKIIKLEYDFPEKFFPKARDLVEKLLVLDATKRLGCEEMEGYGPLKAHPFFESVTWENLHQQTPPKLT

In general, EC50 refers to the concentration giving half of the maximal effect. One may read the IC50 as the concentration needed to halve the response being measured. Read a high IC50 as weaker potency in that assay. With `C[C@H](NC(=O)c1nc(C#N)cnc1NCc1ccc(-c2cnc3[nH]nc(NC(=O)c4ccccc4)c3c2)cc1)c1ccc(F)c(F)c1` [Example 37, (S)-3-(4-(3-benzamido-1H-pyrazolo[3,4-b]pyridin-5-yl)benzylamino)-6-cyano-N-(1-(3,4-difluorophenyl)ethyl)pyrazine-2-carboxamide], in assay [1] (setting [2]), the EC50 was under 1000 nM. The same compound gave a concentration for half-maximal inhibition (IC50) against PDK1 (setting [3]) of under 100 nM.
Consider `NCCOc1nc(-c2ccc(CNc3ncc(C(F)(F)F)cc3C(=O)Nc3ccc(F)cc3)cc2)cnc1N` [Example 166, 2-{4-[5-Amino-6-(2-amino-ethoxy)-pyrazin-2-yl]-benzylamino}-N-(4-fluoro-phenyl)-5-trifluoromethyl-nicotinamide], for which, in assay [1] (setting [4]), the EC50 is under 1000 nM. Also, the IC50 on PDK1 (inhibition of PDK1 in vitro) is under 100 nM.
For `Nc1n[nH]c2ncc(-c3ccc(CNc4ncc(C(F)(F)F)cc4C(=O)NCc4ccc(Cl)cc4)cc3)cc12` [Example 279, 2-(4-(3-amino-1H-pyrazolo [3,4-b]pyridin-5-yl)benzylamino)-N-(4-chlorobenzyl)-5-(trifluoromethyl)nicotinamide] the same measures were under 1000 nM and under 100 nM.
`C=C(C)c1cnc(NCc2ccc(-c3ccc4ncnc(N)c4c3)s2)c(C(=O)NCc2ccc(F)c(F)c2)c1` [Ex. 8.13, 2-({[5-(4-aminoquinazolin-6-yl)thiophen-2-yl]methyl}amino)-N-(3,4-difluorobenzyl)-5-(prop-1-en-2-yl)pyridine-3-carboxamide]: the EC50 in assay [1] (setting [2]) was under 1000 nM. Besides, the IC50 at PDK1 (setting [3]) was under 100 nM.
With `Nc1ncc(-c2ccc(CNc3ncc(C(F)(F)F)cc3C(=O)Nc3ccc(F)cc3)cc2)nc1O[C@H]1CCNC1` [Example 163, 2-{4-[5-Amino-6-((S)-pyrrolidin-3-yloxy)-pyrazin-2-yl]-benzylamino}-N-(4-fluoro-phenyl)-5-trifluoromethyl-nicotinamide], the EC50 in assay [1] (setting [4]) is under 1000 nM. Also, the IC50 on PDK1 (inhibition of PDK1 in vitro) was under 100 nM.
On to `C[C@H](NC(=O)c1cn(C)nc1NCc1ccc(-c2ccc3ncnc(N)c3c2)s1)c1ccc(F)c(F)c1` [Example 11.4, (S)-3-(((5-(4-aminoquinazolin-6-yl)thiophen-2-yl)methyl)amino)-N-(1-(3,4-difluorophenyl)ethyl) 1-methyl-1H-pyrazole-4-carboxamide], for which the EC50 in assay [1] (setting [2]) lay within 1000 to 10000 nM. On PDK1 (setting [3]), the IC50 is under 100 nM.
Take `Nc1ncnc2ccc(-c3ccc(CNc4ncccc4C(=O)NCc4ccc(F)cc4F)s3)cc12` [Example 3.8, 2-({[5-(4-aminoquinazolin-6-yl)thiophen-2-yl]methyl}amino)-N-(2,4-difluorobenzyl)pyridine-3-carboxamide (TFA salt)]: the EC50 in assay [1] (setting [2]) is 1000 to 10000 nM. The compound also yielded an IC50 on PDK1 (setting [3]) of under 100 nM.
For `NCCNS(=O)(=O)c1cnc(NCc2ccc(-c3ccc4ncnc(N)c4c3)s2)c(C(=O)NCc2ccc(F)c(F)c2)c1` [Example 8.6.13, 5-(N-(2-aminoethyl)sulfamoyl)-2-(((5-(4-aminoquinazolin-6-yl)thiophen-2-yl)methyl)amino)-N-(3,4-difluorobenzyl) nicotinamide] the same measures were over 10000 nM and 1000 to 5000 nM.
As to `C[C@H](NC(=O)c1cc(C#N)cnc1NCc1ccc(-c2cccc3n[nH]c(=O)n23)cc1)c1ccc(F)cc1` [Example 144, (S)-5-cyano-N-(1-(4-fluorophenyl)ethyl)-2-(4-(3-oxo-2,3-dihydro-[1,2,4]triazolo[4,3-a]pyridin-5-yl)benzyl-amino)nicotinamide], the EC50 in assay [1] (setting [4]) is over 10000 nM. Further, the IC50 against PDK1 (inhibition of PDK1 in vitro) was over 5000 nM.
On to `Nc1ncnc2ccc(-c3ccc(CNc4ncccc4C(=O)Nc4ccc(F)c(F)c4)s3)cc12` [Example 3.24, 2-({[5-(4-aminoquinazolin-6-yl)thiophen-2-yl]methyl}amino)-N-(3,4-difluorophenyl)pyridine-3-carboxamide (TFA salt)], for which the EC50 in assay [1] (setting [2]) is 1000 to 10000 nM. The compound further registered an IC50 against PDK1 (setting [3]) of 100 to 1000 nM.
Regarding `Nc1ncnc2ccc(-c3ccc(CNc4nccnc4C(=O)NCc4cc(F)cc(F)c4)s3)cc12` [Example 3.76, 3-({[5-(4-aminoquinazolin-6-yl)thiophen-2-yl]methyl}amino)-N-(3,5-difluorobenzyl)pyrazine-2-carboxamide (TFA salt)], in assay [1] (setting [2]), the EC50 was under 1000 nM. At PDK1 (setting [3]), this compound yielded an IC50 of under 100 nM.
In the case of `C[C@H](NC(=O)c1nc(C#N)cnc1NCC1CCC(c2cc3c(N)ncnc3n2C)CC1)c1ccc(F)c(F)c1` (some centres unmarked) [Example 340], the half-maximal effective concentration (EC50) in assay [1] (setting [4]) was in the range of 1000 to 10000 nM. Besides, the IC50 against PDK1 (inhibition of PDK1 in vitro) is over 5000 nM.
As to `C[C@H](NC(=O)c1cc(C#N)cnc1NC/C=C/c1ccc2c(c1)NC(=O)/C2=C\c1cnc[nH]1)c1ccc(F)cc1` [Example 15.4, 2-((E)-3-((Z)-3-((1H-imidazol-5-yl)methylene)-2-oxoindolin-6-yl)allylamino)-5-cyano-N-((S)-1-(4-fluorophenyl)ethyl)nicotinamide], the EC50 in assay [1] (setting [2]) was under 1000 nM. At PDK1 (setting [3]), this compound had an IC50 of under 100 nM.
On to `Nc1ncc(-c2ccc(CNc3ncc(C(F)(F)F)cc3C(=O)Nc3ccc(F)cc3)cc2)nc1NCC(O)CO` (centres unmarked) [Example 245, 2-{4-[5-Amino-6-(2,3-dihydroxy-propylamino)-pyrazin-2-yl]-benzylamino}-N-(4-fluoro-phenyl)-5-trifluoromethyl-nicotinamide], for which the EC50 in assay [1] (setting [4]) is under 1000 nM. Besides, on PDK1 (inhibition of PDK1 in vitro), the IC50 was under 100 nM.
For `C[C@H](NC(=O)c1cc(C#N)cnc1NCc1ccc(-c2cnc(N)c(OCCN)n2)cc1)c1ccc(F)cc1` [Example 165, 2-{4-[5-Amino-6-(2-amino-ethoxy)-pyrazin-2-yl]-benzylamino}-5-cyano-N-[(S)-1-(4-fluoro-phenyl)-ethyl]-nicotinamide] the same measures were under 1000 nM and under 100 nM.
On to `C[C@H](NC(=O)c1cc(C#N)cnc1NCc1ccc(-c2cnc(N)c(CO)n2)cc1)c1ccc(F)cc1` [Example 240, (S)-2-(4-(5-amino-6-(hydroxymethyl)pyrazin-2-yl)benzylamino)-5-cyano-N-(1-(4-fluorophenyl)ethyl)nicotinamide], for which the EC50 in assay [1] (setting [4]) is under 1000 nM. The compound further had an IC50 at PDK1 (inhibition of PDK1 in vitro) of under 100 nM.
For `C[C@H](NC(=O)c1cc(C#N)cnc1NCc1ccc(-c2ccnc(N)n2)cc1)c1ccc(F)cc1` [Example 117, (S)-2-(4-(2-amino-pyrimidin-4-yl)benzylamino)-5-cyano-N-(1-(4-fluorophenyl)ethyl) nicotinamide] the same measures were 1000 to 10000 nM and over 5000 nM.
Turning to `C[C@H](NC(=O)c1cccnc1NCc1ccc(-c2cnc(N)cn2)cc1)c1ccc(F)c(F)c1` [Example 380, (S)-2-(4-(5-aminopyrazin-2-yl)benzylamino)-N-(1-(3,4-difluorophenyl)ethyl) nicotinamide], in assay [1] (setting [4]), the EC50 was in the range of 1000 to 10000 nM. This compound also returned an IC50 on PDK1 (inhibition of PDK1 in vitro) of 100 to 1000 nM.
For `C[C@H](NC(=O)c1nc(C#N)cnc1NCc1ccc(-c2cnc(N)c(O[C@@H]3CCC[C@H]3N)n2)cc1)c1ccc(F)c(F)c1` [Example 172, 3-{4-[5-Amino-6-((1R,2R)-2-amino-cyclopentyloxy)-pyrazin-2-yl]-benzylamino}-6-cyano-pyrazine-2-carboxylic acid [(S)-1-(3,4-difluoro-phenyl)-ethyl]-amide] the same measures were 1000 to 10000 nM and under 100 nM.

Source of the values: US10030016B2 (Sunesis Pharmaceuticals, Inc., priority 2009, dated 2018).
